Values quoted from earlier work in patent publication US20110217337A1, “BIOACTIVE AGENT FOR BONE TISSUE ENGINEERING” (UNIVERSITY OF CONNECTICUT, priority 2010, published 2011).

Key:
osteoblast = settings: cited from earlier work
cell proliferation = settings: cited from earlier work
osteogenesis = settings: via the PKA pathway; cited from earlier work
bone formation = settings: via the PKA pathway; cited from earlier work
cAMP receptors = settings: in vivo; cited from earlier work

Compound | osteoblast proliferation (osteoblast) | cell proliferation (cell proliferation) | in vitro osteogenesis (osteogenesis) | in vivo bone formation (bone formation) | activation of cAMP receptors (cAMP receptors)
Nc1ncnc2c1nc(Br)n2[C@@H]1O[C@@H]2COP(=O)(O)O[C@H]2[C@H]1O [8-Br-cAMP] | inhibits osteoblast proliferation |  |  |  | 
CCCC(=O)Nc1ncnc2c1ncn2[C@@H]1O[C@@H]2COP(=O)(O)O[C@H]2[C@H]1OC(=O)CCC [db-cAMP, N^6,2′-O-dibutyryladenosine-3′,5′-cyclic monophosphate] |  | inhibit cell proliferation | enhances | enhances | activate all cAMP receptors non-specifically
